Assay in all cases: ScanEDGE kinase panel (DiscoverX)
Common to all, as to format: binding
Holding throughout (details): read-out: % of control activity at 71 nM

The target of experiment [1] is T1, AXL (Homo sapiens, UniProt P30530).
T1 construct: T7 phage fusion (most kinases) or DNA tag for qPCR (HEK-293-made kinases); purchased DiscoverX (Fremont, CA); host or cells: E. coli BL21-derived host (T7 phage) or HEK-293
As for the experimental part:
(§1) ScanEDGE kinase assays paneling specificity across a panel of 96 representative kinases were performed by DiscoverX (Fremont, CA). For most assays, kinase-tagged T7 phage strains were grown in parallel in 24-well blocks in an E. coli host derived from the BL21 strain. Bacteria were grown to log phase and infected with T7 phage from frozen stock (MOI=0.4) and incubated with shaking at 32° C. until lysis (90-150 minutes). The lysates were centrifuged (6000×g) and filtered (0.2 μm) to remove cell debris. The remaining kinases were produced in HEK-293 cells and subsequently tagged with DNA for qPCR detection. […] The liganded beads were blocked with excess biotin and washing with blocking buffer (SeaBlock (Pierce), 1% BSA, 0.05% Tween 20, 1 mM DTT) to remove unbound ligand and to reduce non-specific phage binding. […] Test compounds were prepared as 40× stocks in 100% DMSO and directly diluted into the assay. All reactions were performed in polypropylene 384 well plates in a final volume of 40 μl. […] The kinase concentration in the eluates was measured by qPCR.

The target in experiment [2] is T2, SNARK (Homo sapiens, UniProt Q9H093).
T2 construct: T7 phage fusion (most kinases) or DNA tag after HEK-293 expression; purchased DiscoverX (Fremont, CA), ScanEDGE; host or cells: T7 phage in E. coli BL21-derived host, or HEK-293
Here is the method: as §1

The target in experiment [3] is T3, IKK-alpha (Homo sapiens, UniProt O15111).
T3 construct: T7 phage fusion (most kinases) or DNA tag for qPCR (HEK-293-made kinases); purchased DiscoverX; host or cells: E. coli BL21-derived host (T7 phage) or HEK-293
As for the experimental part: as §1

Experiment [4] has as its target T4, ZAP70 (Homo sapiens, UniProt P43403).
T4 construct: T7 phage fusion (most kinases) or DNA tag after HEK-293 expression; purchased DiscoverX (Fremont, CA), ScanEDGE; host or cells: T7 phage in E. coli BL21-derived host, or HEK-293
Here is the method:
as §1

The target in experiment [5] is T5, MARK1 (Homo sapiens, UniProt Q9P0L2).
T5 construct: T7 phage fusion (most kinases) or DNA tag for qPCR (HEK-293-made kinases); purchased DiscoverX; host or cells: E. coli BL21-derived host (T7 phage) or HEK-293
Here is the method: as §1

The target of experiment [6] is T6, SIK2 (Homo sapiens, UniProt Q9H0K1).
T6 construct: T7 phage fusion (most kinases) or DNA tag after HEK-293 expression; purchased DiscoverX (Fremont, CA), ScanEDGE; host or cells: T7 phage in E. coli BL21-derived host, or HEK-293
Here is the method: as §1

For experiment [7], the target named is T7, PLK1 (Homo sapiens, UniProt P53350).
T7 construct: T7 phage fusion (most kinases) or DNA tag for qPCR (kinases made in HEK-293); purchased DiscoverX; host or cells: E. coli BL21-derived host (T7 phage) or HEK-293
As for the experimental part: as §1

The target of experiment [8] is T8, PKAC-alpha (Homo sapiens, UniProt P17612).
T8 construct: T7 phage fusion (most kinases) or DNA tag for qPCR (kinases made in HEK-293); purchased DiscoverX; host or cells: E. coli BL21-derived host (T7 phage) or HEK-293
Here is the method: as §1

Experiment [9] concerns the target T9, RIOK2 (Homo sapiens, UniProt Q9BVS4).
T9 construct: T7 phage fusion (most kinases) or DNA tag after HEK-293 expression; purchased DiscoverX (Fremont, CA), ScanEDGE; host or cells: T7 phage in E. coli BL21-derived host, or HEK-293
As for the experimental part: as §1

Experiment [10] deals with T10, PDGFRA (Homo sapiens, UniProt P16234).
T10 construct: T7 phage fusion (most kinases) or DNA tag for qPCR (kinases made in HEK-293); purchased DiscoverX; host or cells: E. coli BL21-derived host (T7 phage) or HEK-293
Here is the method: as §1

Experiment [11] addresses T11, SRPK3 (Homo sapiens, UniProt Q9UPE1).
T11 construct: T7 phage fusion (most kinases) or DNA tag after HEK-293 expression; purchased DiscoverX (Fremont, CA), ScanEDGE; host or cells: T7 phage in E. coli BL21-derived host, or HEK-293
Here is the method:
as §1

The target in experiment [12] is T12, PAK1 (Homo sapiens, UniProt Q13153).
T12 construct: T7 phage fusion (most kinases) or DNA tag for qPCR (kinases made in HEK-293); purchased DiscoverX; host or cells: E. coli BL21-derived host (T7 phage) or HEK-293
Here is the method: as §1

Experiment [13] deals with T13, CDK9 (Homo sapiens, UniProt P50750).
T13 construct: T7 phage fusion (most kinases) or DNA tag for qPCR (HEK-293-made kinases); purchased DiscoverX (Fremont, CA); host or cells: E. coli BL21-derived host (T7 phage) or HEK-293
Here is the method:
as §1

The target in experiment [14] is T14, AURKA (Homo sapiens, UniProt O14965).
T14 construct: T7 phage fusion (most kinases) or DNA tag for qPCR (HEK-293-made kinases); purchased DiscoverX (Fremont, CA); host or cells: E. coli BL21-derived host (T7 phage) or HEK-293
Here is the method:
as §1

In experiment [15] the target is T15, ROCK2 (Homo sapiens, UniProt O75116).
T15 construct: T7 phage fusion (most kinases) or DNA tag after HEK-293 expression; purchased DiscoverX (Fremont, CA), ScanEDGE; host or cells: T7 phage in E. coli BL21-derived host, or HEK-293
Here is the method: as §1

The target in experiment [16] is T16, ACVR1B (Homo sapiens, UniProt P36896).
T16 construct: T7 phage fusion (most kinases) or DNA tag for qPCR (HEK-293-made kinases); purchased DiscoverX (Fremont, CA); host or cells: E. coli BL21-derived host (T7 phage) or HEK-293
Here is the method:
as §1

T12 sequence (Q13153 whole entry, the tested form may be a part): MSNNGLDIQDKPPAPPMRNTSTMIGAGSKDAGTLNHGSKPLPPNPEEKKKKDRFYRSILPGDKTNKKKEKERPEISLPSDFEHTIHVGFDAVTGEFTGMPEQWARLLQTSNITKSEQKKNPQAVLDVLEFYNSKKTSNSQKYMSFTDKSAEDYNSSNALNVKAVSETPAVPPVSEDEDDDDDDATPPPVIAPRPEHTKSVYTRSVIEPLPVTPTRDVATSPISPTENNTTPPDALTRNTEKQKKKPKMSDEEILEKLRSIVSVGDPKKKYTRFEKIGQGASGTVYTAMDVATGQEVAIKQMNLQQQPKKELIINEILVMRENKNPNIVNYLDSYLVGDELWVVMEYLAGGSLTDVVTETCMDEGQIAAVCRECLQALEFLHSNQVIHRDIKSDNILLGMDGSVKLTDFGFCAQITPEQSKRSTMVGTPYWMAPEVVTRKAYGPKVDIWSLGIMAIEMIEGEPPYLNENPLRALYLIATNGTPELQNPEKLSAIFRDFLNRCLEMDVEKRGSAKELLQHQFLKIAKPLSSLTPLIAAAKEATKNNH
T1 sequence (P30530 26-894): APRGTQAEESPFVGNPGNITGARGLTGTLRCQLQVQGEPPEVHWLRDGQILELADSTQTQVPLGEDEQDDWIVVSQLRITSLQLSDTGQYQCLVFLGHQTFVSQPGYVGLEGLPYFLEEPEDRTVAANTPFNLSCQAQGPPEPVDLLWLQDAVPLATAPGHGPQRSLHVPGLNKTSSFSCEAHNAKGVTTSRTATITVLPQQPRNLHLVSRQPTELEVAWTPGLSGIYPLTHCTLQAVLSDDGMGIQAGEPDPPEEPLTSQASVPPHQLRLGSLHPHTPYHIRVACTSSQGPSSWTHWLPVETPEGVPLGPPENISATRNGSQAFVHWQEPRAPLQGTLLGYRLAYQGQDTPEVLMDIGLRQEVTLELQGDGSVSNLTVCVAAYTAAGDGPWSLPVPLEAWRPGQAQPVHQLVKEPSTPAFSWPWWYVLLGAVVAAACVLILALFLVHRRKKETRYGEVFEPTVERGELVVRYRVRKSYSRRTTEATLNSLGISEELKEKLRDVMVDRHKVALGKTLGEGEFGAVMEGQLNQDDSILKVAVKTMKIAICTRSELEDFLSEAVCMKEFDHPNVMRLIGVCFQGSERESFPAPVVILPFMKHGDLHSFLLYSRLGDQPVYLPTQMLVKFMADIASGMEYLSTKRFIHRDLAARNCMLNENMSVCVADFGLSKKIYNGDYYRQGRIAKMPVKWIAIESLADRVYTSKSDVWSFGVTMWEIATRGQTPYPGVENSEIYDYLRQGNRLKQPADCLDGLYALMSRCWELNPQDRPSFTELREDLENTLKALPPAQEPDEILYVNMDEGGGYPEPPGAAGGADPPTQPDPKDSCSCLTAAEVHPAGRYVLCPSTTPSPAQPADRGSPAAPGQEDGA
T6 sequence (Q9H0K1 whole entry, the tested form may be a part): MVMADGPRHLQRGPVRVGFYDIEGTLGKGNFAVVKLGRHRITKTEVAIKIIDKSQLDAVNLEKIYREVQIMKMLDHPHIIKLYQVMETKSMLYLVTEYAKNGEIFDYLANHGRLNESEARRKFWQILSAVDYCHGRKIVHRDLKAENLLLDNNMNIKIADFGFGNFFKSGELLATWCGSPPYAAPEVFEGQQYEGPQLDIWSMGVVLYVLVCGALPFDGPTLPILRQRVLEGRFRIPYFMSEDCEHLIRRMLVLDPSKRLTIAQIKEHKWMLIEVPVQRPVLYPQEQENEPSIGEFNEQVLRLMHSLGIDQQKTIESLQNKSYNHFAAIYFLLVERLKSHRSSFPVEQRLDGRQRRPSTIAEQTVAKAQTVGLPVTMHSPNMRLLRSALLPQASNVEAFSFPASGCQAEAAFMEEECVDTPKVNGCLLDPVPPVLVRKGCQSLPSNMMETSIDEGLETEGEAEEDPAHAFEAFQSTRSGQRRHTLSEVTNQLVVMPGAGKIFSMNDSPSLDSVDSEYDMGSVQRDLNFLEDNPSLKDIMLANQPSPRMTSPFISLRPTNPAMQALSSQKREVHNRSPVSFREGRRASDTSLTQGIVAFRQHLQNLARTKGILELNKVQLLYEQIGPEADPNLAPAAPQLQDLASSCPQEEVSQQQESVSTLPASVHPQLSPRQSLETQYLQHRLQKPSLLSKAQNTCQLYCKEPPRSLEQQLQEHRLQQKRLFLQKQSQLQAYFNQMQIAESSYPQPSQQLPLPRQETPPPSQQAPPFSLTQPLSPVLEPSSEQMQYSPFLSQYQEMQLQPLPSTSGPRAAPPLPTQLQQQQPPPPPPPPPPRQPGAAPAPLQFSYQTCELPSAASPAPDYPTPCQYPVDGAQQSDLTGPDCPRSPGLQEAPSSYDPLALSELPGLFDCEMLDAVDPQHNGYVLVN
T16 sequence (P36896 24-505): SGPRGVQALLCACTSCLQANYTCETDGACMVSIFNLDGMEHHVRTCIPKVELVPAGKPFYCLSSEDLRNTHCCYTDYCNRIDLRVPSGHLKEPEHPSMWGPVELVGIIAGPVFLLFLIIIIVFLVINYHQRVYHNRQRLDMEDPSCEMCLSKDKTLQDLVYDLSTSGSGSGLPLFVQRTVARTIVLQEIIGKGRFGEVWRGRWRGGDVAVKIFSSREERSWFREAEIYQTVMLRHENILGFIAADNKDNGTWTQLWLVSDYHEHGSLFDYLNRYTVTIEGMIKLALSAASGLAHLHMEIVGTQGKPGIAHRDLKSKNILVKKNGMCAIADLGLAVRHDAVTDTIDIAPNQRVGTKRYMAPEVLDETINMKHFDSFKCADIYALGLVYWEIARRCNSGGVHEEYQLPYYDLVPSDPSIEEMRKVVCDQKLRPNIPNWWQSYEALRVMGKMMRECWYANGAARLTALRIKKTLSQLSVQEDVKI
T10 sequence (P16234 24-1089): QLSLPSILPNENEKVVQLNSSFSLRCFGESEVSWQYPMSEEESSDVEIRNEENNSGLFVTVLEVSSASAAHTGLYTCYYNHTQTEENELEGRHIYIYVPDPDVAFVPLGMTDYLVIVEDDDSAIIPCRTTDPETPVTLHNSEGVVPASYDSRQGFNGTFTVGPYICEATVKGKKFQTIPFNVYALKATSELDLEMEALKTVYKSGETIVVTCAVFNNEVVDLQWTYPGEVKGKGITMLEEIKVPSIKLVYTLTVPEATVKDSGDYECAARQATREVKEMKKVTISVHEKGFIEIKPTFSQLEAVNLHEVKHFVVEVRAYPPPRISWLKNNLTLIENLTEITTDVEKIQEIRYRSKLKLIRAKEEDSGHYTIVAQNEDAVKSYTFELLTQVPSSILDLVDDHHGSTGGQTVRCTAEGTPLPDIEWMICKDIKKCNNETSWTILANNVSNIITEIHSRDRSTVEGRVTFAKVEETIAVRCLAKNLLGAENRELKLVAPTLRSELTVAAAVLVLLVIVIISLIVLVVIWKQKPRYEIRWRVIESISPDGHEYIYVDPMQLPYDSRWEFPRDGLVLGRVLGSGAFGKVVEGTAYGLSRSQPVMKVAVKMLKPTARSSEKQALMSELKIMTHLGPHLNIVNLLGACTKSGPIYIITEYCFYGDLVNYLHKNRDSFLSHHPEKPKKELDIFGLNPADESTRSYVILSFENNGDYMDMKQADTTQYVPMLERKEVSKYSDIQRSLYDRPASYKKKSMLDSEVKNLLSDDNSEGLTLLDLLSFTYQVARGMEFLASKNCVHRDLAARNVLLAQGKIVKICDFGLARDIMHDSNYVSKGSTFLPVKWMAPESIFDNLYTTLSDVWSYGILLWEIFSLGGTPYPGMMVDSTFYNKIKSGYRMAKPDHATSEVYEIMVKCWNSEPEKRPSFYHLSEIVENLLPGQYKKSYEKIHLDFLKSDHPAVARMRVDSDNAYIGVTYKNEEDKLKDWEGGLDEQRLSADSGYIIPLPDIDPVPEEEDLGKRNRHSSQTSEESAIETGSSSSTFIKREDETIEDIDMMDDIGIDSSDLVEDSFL
T5 sequence (Q9P0L2 whole entry, the tested form may be a part): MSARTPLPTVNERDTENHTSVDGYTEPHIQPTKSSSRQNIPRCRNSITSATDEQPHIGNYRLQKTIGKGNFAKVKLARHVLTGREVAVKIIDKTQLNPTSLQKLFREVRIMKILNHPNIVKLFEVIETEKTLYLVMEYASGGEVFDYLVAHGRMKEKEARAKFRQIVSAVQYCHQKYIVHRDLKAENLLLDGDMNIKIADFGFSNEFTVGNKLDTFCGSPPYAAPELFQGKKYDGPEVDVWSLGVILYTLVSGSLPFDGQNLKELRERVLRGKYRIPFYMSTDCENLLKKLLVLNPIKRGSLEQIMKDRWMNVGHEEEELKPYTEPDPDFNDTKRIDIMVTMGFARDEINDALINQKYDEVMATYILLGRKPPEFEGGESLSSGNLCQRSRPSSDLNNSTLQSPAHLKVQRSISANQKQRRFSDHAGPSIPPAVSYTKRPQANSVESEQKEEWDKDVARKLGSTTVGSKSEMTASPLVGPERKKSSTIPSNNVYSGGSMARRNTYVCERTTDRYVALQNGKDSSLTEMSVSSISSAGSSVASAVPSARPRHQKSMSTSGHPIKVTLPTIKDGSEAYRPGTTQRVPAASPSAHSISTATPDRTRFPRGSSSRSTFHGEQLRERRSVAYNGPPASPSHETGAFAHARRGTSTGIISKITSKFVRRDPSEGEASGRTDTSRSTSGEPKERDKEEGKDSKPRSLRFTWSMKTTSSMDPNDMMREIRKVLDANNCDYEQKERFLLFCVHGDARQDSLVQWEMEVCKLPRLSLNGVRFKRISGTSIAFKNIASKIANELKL
T13 sequence (P50750 whole entry, the tested form may be a part): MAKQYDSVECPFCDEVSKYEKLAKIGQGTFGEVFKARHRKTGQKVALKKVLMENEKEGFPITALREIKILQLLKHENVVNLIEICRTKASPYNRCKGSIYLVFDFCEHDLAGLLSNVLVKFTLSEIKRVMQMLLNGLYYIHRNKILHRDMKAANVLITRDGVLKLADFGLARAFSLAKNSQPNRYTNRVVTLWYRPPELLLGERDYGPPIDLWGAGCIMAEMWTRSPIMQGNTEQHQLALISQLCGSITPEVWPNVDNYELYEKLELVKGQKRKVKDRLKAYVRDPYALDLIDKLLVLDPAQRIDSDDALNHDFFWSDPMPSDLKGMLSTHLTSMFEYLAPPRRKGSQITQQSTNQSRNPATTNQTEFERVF

Take `COc1ccc(N2C(=O)N(c3c(C)cccc3C)Cc3cnc(Nc4ccc(C5CCN(C)CC5)c(OC)c4)nc32)c(OC)c1` [YKL-05-093]: the remaining binding at 0.071 µM in experiment [1] was determined as 68%; in [2], 6%; in [3] it was 93%; in [4] it was 52%; in [5], 84%; in [6] it was 10%. Besides, the remaining binding at 0.071 µM in [7] was found to be 100%; in experiment [8], 100%; in experiment [9] it was 77%; in experiment [10] it was 11%; in [11] it was 88%; in [12], 6.6%. The remaining binding at 0.071 µM in experiment [13] is 88%; in experiment [14], 12%; in experiment [15], 70%; in experiment [16] it was 50%.
